Data from paper PMC6600273, “Design, Synthesis and Anti-Platelet Aggregation Activity Study of Ginkgolide-1,2,3-triazole Derivatives” (Molecules, 2019).

Tested on: PAF-induced platelet aggregation
Assay: In vitro antiplatelet aggregation activity assay (method of Born), PAF-induced platelet aggregation in platelet-rich plasma
Type: cell-based, New Zealand rabbits
Settings: for IC50: rabbit PRP, aggregation induced by PAF (10 nM); for antiplatelet aggregation activity, inhibition ratio in primary screening (result in words): inhibition ratio at 50 nM, Figures 3 and 4
Method: The in vitro antiplatelet aggregation activity of the newly synthesized 10-substituted 1,2,3-triazole-ginkgolide derivatives was tested by the method of Born. Blood samples (2 mL) from male New Zealand rabbits (2–2.5 kg body weight) were drawn into vacutainer tubes containing 200 μL of 3.2% sodium citrate. Platelet-rich plasma (PRP) was prepared by centrifuging the blood at 250× g for 10 min at 4 °C. The PRP was diluted with platelet-poor plasma obtained by further centrifuging at 3000× g for 10 min. The remaining blood was further centrifuged at 1600× g for 5 min to obtain platelet-poor plasma (PPP) as control group. Platelet aggregation was induced by PAF (10 nM) after incubating platelets with different concentrations of samples, and the maximum rate of platelet aggregation (RPA%) within 5 min was measured with a Helena Platelet aggregometer instrument. The inhibition ratio was calculated according to the following formula:Inhibition ratio (%) = (1−(RPA% of test group) / (RPA% of control group)) × 100%
In primary screening, the activities were expressed directly as inhibition ratio at 50 nM concentration. […] The values shown in the tables were calculated by linear regression from a single experimental curve with no less than four data points, each point being the mean of the percentage inhibition at a given concentration obtained from three independent experiments.

[1] = Oryctolagus cuniculus, Platelet

| Compound | IC50 [1] | antiplatelet aggregation activity, inhibition ratio in primary screening (result in words) | fold increase in antiplatelet aggregation activity in comparison with natural ginkgolide B (1) (ratio of IC50 values vs ginkgolide B) | IC50 |
| --- | --- | --- | --- | --- |
| C[C@@H]1C(=O)O[C@H]2C[C@@]34[C@H]5C[C@@H](C(C)(C)C)[C@]36[C@@H](OC(=O)[C@@H]6O)O[C@@]4(C(=O)O5)[C@]21O [1′, ginkgolide A, reference compound] | 580 ± 50.3 nM |  |  |  |
| CC1C(=O)OC2C(O)C34C5CC(C(C)(C)C)C36C(OC(=O)C6OCc3cn(-c6ccccc6)nn3)OC4(C(=O)O5)C12O (stereo not shown) [Compound 5a, 10-O-(1-Phenyl-1H-1,2,3-triazole) ginkgolide B] | 7.74 ± 1.89 nM | best results |  |  |
| CC1C(=O)OC2C(O)C34C5CC(C(C)(C)C)C36C(OC(=O)C6OCc3cn(Cc6ccccc6)nn3)OC4(C(=O)O5)C12O (stereo not shown) [Compound 5ff, 10-O-(1-Benzyl-1H-1,2,3-triazole) ginkgolide B] | 5.31 ± 1.84 nM | best results | ~20 fold |  |
| Cc1ccccc1-n1cc(COC2C(=O)OC3OC45C(=O)OC6CC(C(C)(C)C)C32C64C(O)C2OC(=O)C(C)C25O)nn1 (stereo not shown) [Compound 5n, 10-O-(1-(2-Methylphenyl)-1H-1,2,3-triazole) ginkgolide B] | 20.6 ± 2.84 nM | best results |  |  |
| CC1C(=O)OC2C(O)C34C5CC(C(C)(C)C)C36C(OC(=O)C6OCc3cn(-c6ccccc6C#N)nn3)OC4(C(=O)O5)C12O (stereo not shown) [Compound 5p, 10-O-(1-(2-Cyanophenyl)-1H-1,2,3-triazole) ginkgolide B] | 10.2 ± 2.03 nM | best results |  |  |
| Cc1cccc(-n2cc(COC3C(=O)OC4OC56C(=O)OC7CC(C(C)(C)C)C43C75C(O)C3OC(=O)C(C)C36O)nn2)c1 (stereo not shown) [Compound 5q, 10-O-(1-(3-Methylphenyl)-1H-1,2,3-triazole) ginkgolide B] | 44.3 ± 4.42 nM |  |  |  |
| ginkgolide B [Compound 1, reference compound] |  |  |  | 130 ± 20 nM |
| ginkgolide C [1″, reference compound] |  |  |  | 7540 ± 662 nM |
